# Data published in patent publication US12644143B2, “Method for the determination of antibiotic susceptibility through stimulated Raman metabolic imaging” (priority 2017, dated 2026).
# How the values were obtained:
# Type in all cases: cell-based
# [1] = system: S. aureus
# Method: (§1) The toxicity of D2O was first tested on bacteria by measuring the growth in a D2O containing medium. Three types of bacteria (E. coli, S. aureus, and P. aeruginosa) were cultured at different concentrated D2O containing LB medium, and their growth were monitored with optical density (OD) measurement at about 600 nm.
# [2] = system: E. coli
# Method: as §1
# [3] = system: P. aeruginosa
# Method: as §1
# [4] = system: P. aeruginosa; assay: conventional culture-based microdilution method; details: 20 μg/ml
# Method: (§2) P. aeruginosa were cultivated in 70% D2O containing LB medium, with the addition of 20 μg/ml gentamicin or cefotaxime to determine the antibiotic effect on the metabolic activity of D2O in bacteria, and wherein it is suitable for use of rapid AST with SRS imaging. The susceptibility of P. aeruginosa were pre-determined to be susceptible to gentamicin and resistant to cefotaxime at this concentration using conventional culture-based microdilution method. […] This filamentary formation may also be observed when P. aeruginosa was treated with other β-lactam antibiotics 10.
# [5] = system: P. aeruginosa; assay: SRS imaging of D2O metabolic activity (C-D signal at 2162 cm-1); details: for C-D signal / metabolic activity of D2O in SRS imaging: 10 minutes to 3 hours; for average C-D signal intensity relative to about 65% of control threshold: all time points about 10 minutes to about 3 hours
# Method: A 70% D2O containing LB medium was provided to cultivate bacteria, and used P. aeruginosa as a model to test whether the D2O metabolic activity in single bacterium can be monitored by SRS microscope. P. aeruginosa was separately cultivated in normal LB and 70% D2O containing LB medium for about 2 hours, and then centrifuged and washed in water to remove the culture medium. […] To image single bacterium, bacteria were further diluted and deposited on an agarose gel pad. […] The results were confirmed by SRS spectrum (FIG. 16C) obtained through temporal tuning of chirped pump and Stokes femtosecond pulses.
# A time lapse of D2O metabolic activity can be carried out in single P. aeruginosa with femtosecond SRS imaging. P. aeruginosa was first cultivated in about 70% D2O containing LB medium for up to about 3 hours, at different time points, about 500 μl bacteria were centrifuged, washed and deposited on agarose gel pad for imaging. […] To view individual bacterium more clearly, the images in FIG. 18A were further zoomed in FIG. 18B.
# as §2
# The D2O metabolic activity of bacteria can be used to rapid differentiate the antibiotic susceptibility of bacteria and examined using the average C-D signal intensity of bacteria being compared between three groups shown in FIGS. 19C-H, the control without antibiotics treatment (FIG. 18A), treated with gentamicin (FIG. 19A), and treated with cefotaxime (FIG. 19B). […] Therefore, the susceptibility of P. aeruginosa to gentamicin and cefotaxime can be determined in as short as about 10 minutes.
# The SRS metabolic imaging method can determine the minimal inhibitory concentration (MIC) of antibiotics to bacteria and was done by cultivating P. aeruginosa in about 70% D2O containing LB medium for about 1 hour with the addition of gentamicin with serial diluted concentration. […] With the 65% intensity threshold, the MIC was determined to be about 8 μg/ml with SRS-based D2O metabolic imaging method, which is consistent to the result determined by the conventional culture-based method.
# [6] = system: E. faecalis 31970 (vancomycin susceptible enterococci, VSE); assay: SRS metabolic imaging of glucose-d7 uptake (C-D signal) for AST; details: for susceptibility of E. faecalis 31970 based on metabolic imaging method: 20 μg/mL antibiotic; for C-D signal in SRS imaging versus control: E. faecalis 31970, 20 μg/mL antibiotic; for intensity of C-D component versus control: 1 hour
# Method: (§3) The SRS imaging based method of the present disclosure can determine the susceptibility of bacteria to antibiotics within about […]. A bacteria solution for testing through SRS imaging and placement on the agarose gel pad can be prepared by cultivating bacteria in a broth, such as a Lysogeny broth (LB) (LB Broth, Sigma Aldrich) for about two hours to reach to log phase. The bacteria can then added in a ratio between about 0.1:100 to about a 10:100 ratio to 2 mL of various types of medium. In one exemplary embodiment, the ration can be about 1:100 to 2 ML of medium, such as a specialized medium. Some exemplary embodiments can use D2O medium or other specialized medium herein referred to as M9 medium wherein about a 2% glucose-d7 can be only carbon source. The M9 medium is developed and selected to maximize the signal within the C-D vibrational region. To measure the resistance of a given bacteria to an antibiotic, the antibiotic is added to the specialized medium to a concentration of about 20 μg/mL. After at least about 30 minutes of incubation about 500 μl of the sample is centrifuged, washed twice with purified water, and deposited to an agarose gel pad for imaging. An imaging setup of illustrated in FIG. 1A can be utilized to process the sample.
# Referring now to FIG. 2A-D the method of the present disclosure can generally be performed in an exemplary method to determine effectiveness utilizing an antibiotic, such as vancomycin. Accordingly, the method can be utilized to examine the influence of antibiotics to the metabolic uptake of glucose-d7 by bacteria. Vancomycin susceptible (VSE) and Vancomycin resistant (VRE) enterococci E. faecalis can first be grown to a log phase by cultivating in LB medium for about 2 hours, then VSE and VRE can further be cultivated in M9 medium with about 2% glucose-d7 as the sole carbon source, respectively, with the addition of vancomycin to a final concentration of about 20 μg/mL (FIG. 2A). Other embodiments can include various types of carbon source as a sole carbon source or in combination with other carbon or nutrient sources. One exemplary embodiment can use a nutrient source of about 0-100% deuterium dioxide. Similarly, the carbon source can include a combination of deuterium dioxide and glucose-d7. This concentration was chosen because it is between the minimum inhibitory concentrations (MICS) of vancomycin to VSE (MIC is 1 μg/mL) and to VRE (MIC is >100 μg/mL). For control, VSE and VRE were cultivated in glucose-d7 containing medium without the addition of vancomycin (FIG. 2a). After 30 minutes (0.5 hours) to 3 hours incubation, each sample was centrifuged and washed twice in water, and then deposited on an agarose gel pad for SRS imaging.
# (§4) To quantify the C-D content of the E. faecalis cells and the response of bacteria to the treatment of antibiotics, multivariate curve resolution (MCR) analysis is applied to retrieve the C-D component from hyperspectral SRS imaging data shown in FIGS. 3A-D. MCR is a bilinear model which decomposes the experimental data matrix that contains spectrum at each pixel into concentration maps and spectra of principle components. With an initial estimated spectrum of each component as the input, MCR is calculated and optimized iteratively using alternating least squares algorithm until convergence is reached. The output of MCR contains the concentration map and spectrum of each component. Referring now to FIG. 3A-D the spectra of glucose-d7, which represented the C-D component, and gel, which represented the background, were used as the input components. After MCR analysis, C-D component can be clearly separated from the background and utilized to quantify the contents of the collected SRS imaging data.
# The MIC, defined as the lowest concentration of antibiotic that is able to inhibit the visible growth of bacteria in vitro, can be determined by our metabolic imaging method. […]
# [7] = system: E. faecalis 31970 (vancomycin susceptible enterococci, VSE); assay: MIC by conventional culture based method
# [8] = system: E. faecalis 31970
# Method: (§5) To test the toxicity of glucose-d7 to bacteria, E. faecalis 31970 and 31972 were cultivated in custom-made M9 medium, one with normal glucose for control and the other with glucose-d7. The growth of bacteria was monitored by optical density (OD) measurement at 600 nm for up to 22 hours (FIG. 9). […] FIG. 9A illustrates OD measurement for vancomycin susceptible enterococci cultured in M9 medium with either 2% normal glucose or 2% glucose-d7, whereas FIG. 9B illustrates OD measurement for vancomycin resistant enterococci cultured in M9 medium with either 2% normal glucose or 2% glucose-d7.
# [9] = system: E. faecalis 31972
# Method: as §5
# [10] = system: S. aureus strain resistant to oxacillin; assay: SRS metabolic imaging of deuterated glucose (C-D peak); details: 1.3 μg/ml oxacillin, 0.5 h, glucose-d2 containing medium
# Method: (§6) The metabolic activity of glucose-d2 can be observed in single bacterium cultivated in glucose-d2 containing medium for 0.5 h by SRS imaging (FIG. 11B). […] Therefore, susceptible and resistant S. aureus can be determined in about 0.5 h.
# [11] = system: S. aureus strain susceptible to oxacillin; assay: as above; details: 1.3 μg/ml oxacillin, 0.5 h, glucose-d2 containing medium
# Method: as §6
# [12] = system: S. aureus strain susceptible to oxacillin; assay: MIC of oxacillin; details: Staphylococcus aureus
# [13] = system: vancomycin resistant (VRE) enterococci E. faecalis; assay: SRS metabolic imaging of glucose-d7 uptake (C-D signal) for AST; details: for intensity of C-D component after MCR versus control: 20 μg/ml
# Method: as §3, with “sample. […]” for “sample.”
# as §4, with “The output of MCR contains the concentration map and spectrum of each component. Referring now to FIG. 3A-D the spectra of glucose-d7, which represented the C-D component, and gel, which represented the background, were used as the input components.” left out, “data. […]” for “data.”
# [14] = system: vancomycin resistant (VRE) enterococci E. faecalis; assay: MIC by conventional culture based method; details: Enterococcus
# [15] = Enterococcus faecalis, conventional culture based method, E. faecalis 31970 (VSE), read-out: MIC
molecule,measurement,setting,value
[2H]O[2H] [D2O],toxicity to growth,[1],did not show significant toxicity
same,toxicity to growth,[2],did not show significant toxicity
same,growth of P. aeruginosa,[3],initially slowed down
CO/N=C(\C(=O)N[C@@H]1C(=O)N2C(C(=O)O)=C(COC(C)=O)CS[C@H]12)c1csc(N)n1 [cefotaxime],susceptibility of P. aeruginosa pre-determined by microdilution,[4],resistant
same,bacterial morphology on cultivation with antibiotic,"[5]; 20 μg/ml, 70% D2O LB medium",tends to form long rods
same,C-D signal / metabolic activity of D2O in SRS imaging,"[5]; 20 μg/ml, 70% D2O LB medium",active metabolic activity of D2O
same,average C-D signal intensity relative to about 65% of control threshold,[5]; 20 μg/ml,always above the threshold
CCCCCCCCCC(=O)N[C@@H](Cc1c[nH]c2ccccc12)C(=O)N[C@H](CC(N)=O)C(=O)N[C@@H](CC(=O)O)C(=O)N[C@@H]1C(=O)NCC(=O)N[C@@H](CCCN)C(=O)N[C@@H](CC(=O)O)C(=O)N[C@H](C)C(=O)N[C@@H](CC(=O)O)C(=O)NCC(=O)N[C@H](CO)C(=O)N[C@@H]([C@H](C)CC(=O)O)C(=O)N[C@@H](CC(=O)c2ccccc2N)C(=O)O[C@@H]1C [daptomycin],susceptibility of E. faecalis 31970 based on metabolic imaging method,[6]; 1 h,resistant
same,MIC,[7]; [15],32 µg/mL
CC[C@H]1OC(=O)[C@H](C)[C@@H](O[C@H]2C[C@@](C)(OC)[C@@H](O)[C@H](C)O2)[C@H](C)[C@@H](O[C@@H]2O[C@H](C)C[C@H](N(C)C)[C@H]2O)[C@](C)(O)C[C@@H](C)C(=O)[C@H](C)[C@@H](O)[C@]1(C)O [erythromycin],susceptibility of E. faecalis 31970 based on metabolic imaging method,[6]; 1 h,resistant
same,MIC,[7]; [15],> 256 µg/mL
[2H]C(=O)[C@]([2H])(O)[C@@]([2H])(O)[C@]([2H])(O)[C@]([2H])(O)C([2H])([2H])O [glucose-d7],toxicity to bacterial growth,[8],no toxicity
same,toxicity to bacterial growth,[9],no toxicity
CC(=O)NC[C@H]1CN(c2ccc(N3CCOCC3)c(F)c2)C(=O)O1 [linezolid],susceptibility of E. faecalis 31970 based on metabolic imaging method,[6]; 1 h,susceptible
same,C-D signal in SRS imaging versus control,[6]; 1 h,significant reduction
same,MIC,[7]; [15],2 µg/mL
Cc1onc(-c2ccccc2)c1C(=O)N[C@@H]1C(=O)N2[C@@H]1SC(C)(C)[C@@H]2C(=O)O [oxacillin],C-D peak versus untreated control,[10],no significant change
same,C-D peak versus untreated control,[11],reduction in C-D peak
same,MIC,[12],0.0625 µg/mL
CN[C@H](CC(C)C)C(=O)N[C@H]1C(=O)N[C@@H](CC(N)=O)C(=O)N[C@H]2C(=O)N[C@H]3C(=O)N[C@H](C(=O)N[C@H](C(=O)O)c4cc(O)cc(O)c4-c4cc3ccc4O)[C@H](O)c3ccc(c(Cl)c3)Oc3cc2cc(c3O[C@@H]2O[C@H](CO)[C@@H](O)[C@H](O)[C@H]2O[C@H]2C[C@](C)(N)[C@H](O)[C@H](C)O2)Oc2ccc(cc2Cl)[C@H]1O [vancomycin],susceptibility of E. faecalis 31970 based on metabolic imaging method,[6]; 1 h,susceptible
same,intensity of C-D signal for individual VSE relative to control group,"[6]; 20 μg/mL vancomycin, 30 minutes in glucose-d7 medium, fraction of control",about ⅓
same,C-D signal in SRS imaging versus control,[6]; 1 h,significant reduction
same,MIC,"[6]; Enterococcus faecalis, 1 h, read-out: MIC determined by metabolic imaging method",2 µg/mL
same,intensity of C-D component versus control,"[6]; VSE, 1 μg/mL vancomycin",did not reduce
same,intensity of C-D component versus control,"[6]; VSE, 2 μg/mL or higher vancomycin",significantly reduced
same,"normalized SRS spectra, signal intensity in C-D region versus control","[6]; VSE, 20 μg/mL vancomycin, 30 minutes",reduced the signal intensity
same,intensity of C-D component after MCR versus control,"[6]; VSE, 20 μg/ml, 0.5, 1 and 3 h (p 2.2×10^−13, 2.0×10^−11, 3.9×10^−15)",significantly reduced
same,"normalized SRS spectra, signal intensity in C-D region with and without treatment","[13]; 20 μg/mL vancomycin, 30 minutes",remain the same
same,intensity of C-D component after MCR versus control,[13]; 0.5 to 3 h,did not significantly reduce
same,intensity of C-D component after MCR versus control,[13]; 3 h (p-value 5×10^−4),higher intensity of C-D component than the control group
same,MIC,[7]; Enterococcus faecalis,1 µg/mL
same,MIC,[14],> 100 µg/mL
gentamycin,susceptibility of E. faecalis 31970 based on metabolic imaging method,[6]; 1 h,resistant
same,susceptibility of P. aeruginosa pre-determined by microdilution,[4],susceptible
same,C-D signal / metabolic activity of D2O in SRS imaging,"[5]; 20 μg/ml, 70% D2O LB medium",significantly reduced
same,average C-D signal intensity relative to about 65% of control threshold,[5]; 20 μg/ml,always below the threshold
same,gentamicin concentration at which D2O metabolic activity was inhibited,"[5]; about 1 hour, 70% D2O LB medium",≥ 8 µg/mL
same,MIC with SRS-based D2O metabolic imaging method,"[5]; about 1 hour, 70% D2O LB medium, 65% intensity threshold",about 8 μg/ml
same,MIC,"[7]; conventional culture based method, E. faecalis 31970 (VSE)",>256 µg/mL
